What all share (assay type): functional
The species named for one test is Cavia porcellus. Description: Inhibitory effect on electrically induced contraction of guinea pig ileum (GPI).
The species entered for another test is Mus musculus. Description: Inhibitory effect on electrically induced contraction of Mouse vas deferens (MVD).
A further test is filed under the species Rattus norvegicus. Description: Inhibitory effect on the binding of 2 nM [3H]naloxone to rat brain membrane.
Test [1] can be described thus: Relative potency calculated from the ratio of IC50 of [Leu]-enkephalin to that of the compound.

What is called IC50 is the point on the concentration scale where inhibition reaches its midpoint. `CC(C)C[C@H](NC(=O)[C@H](Cc1ccccc1)NC(=O)CNC(=O)[C@H](C)NC(=O)[C@@H](N)Cc1ccc(O)cc1)C(=O)NCCNc1ccc(N=[N+]=[N-])cc1[N+](=O)[O-]`: the figures for the 50% inhibitory concentration (IC50) in the test listed under Cavia porcellus, in the test filed under Mus musculus and in the test listed under Rattus norvegicus were 4.35 nM, 2.59 nM and 2.52 nM, respectively. The Potency in test [1] is 46.8.

As for `CC(C)C[C@H](NC(=O)[C@H](Cc1ccccc1)NC(=O)CNC(=O)CNC(=O)[C@@H](N)Cc1ccc(O)cc1)C(N)=O` [[LEU5]ENKEPHALIN], the figures for the concentration for half-maximal inhibition (IC50) in the test filed under Cavia porcellus, in the test filed under Mus musculus and in the test listed under Rattus norvegicus were 120 nM, 17 nM and 118 nM, respectively. Also, the Potency in test [1] was 1.

With `CC(C)C[C@H](NC(=O)[C@H](Cc1ccccc1)NC(=O)CNC(=O)[C@@H](C)NC(=O)[C@@H](N)Cc1ccc(O)cc1)C(N)=O`, the figures for the IC50 in the test filed under Cavia porcellus, in the test listed under Mus musculus and in the test listed under Rattus norvegicus were 5.23 nM, 2.88 nM and 30 nM, respectively. For the same compound, in test [1], the Potency was 3.9.

Consider `C=CCN1CC[C@]23c4c5ccc(O)c4O[C@H]2C(=O)CC[C@@]3(O)[C@H]1C5` [NALOXONE], for which, in the test filed under Rattus norvegicus, the IC50 was found to be 6.39 nM. For the same compound, the Potency in test [1] was 18.5.

These data come from ChEMBL document CHEMBL1122680, “A photoaffinity reagent to label the opiate receptors of guinea pig ileum and mouse vas deferens” (J Med Chem, 1984).
